# Test results reported in the supplement of paper PMC10307832.
# Assays:
# Assay in all cases: relative viability (nuclei count vs DMSO), 5 days (fraction); higher = more cells survive
# BEN = test system: BEN
# Outline: (§1)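 Relative viability divides the nuclei count in treated wells by that in vehicle wells. Lung cancer cell lines were seeded in 1536-well plates, dosed by pin tool the next day, and fixed and stained after 5 days in one step with final 0.05% Triton X-100, 1% formaldehyde and 1 ug/ml Hoechst. Dosing was a single drug or a fixed anchor-drug dose plus five library-drug doses (not always all listed) in √10 steps, and values are medians of duplicate plates imaged at 4×.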
# CAL-12T = test system: CAL-12T
# Outline: as §1
# EKVX = test system: EKVX
# Outline: as §1
# HCC-366 = test system: HCC-366
# Outline: as §1
# HCC-44 = test system: HCC-44
# Outline: as §1
# LOU-NH91 = test system: LOU-NH91
# Outline: as §1
# LU99A = test system: LU99A
# Outline: as §1
# NCI-H1355 = test system: NCI-H1355
# Outline: as §1
# NCI-H1395 = test system: NCI-H1395
# Outline: as §1
# NCI-H1437 = test system: NCI-H1437
# Outline: as §1
# NCI-H1650 = test system: NCI-H1650
# Outline: as §1
# NCI-H1651 = test system: NCI-H1651
# Outline: as §1
# NCI-H1734 = test system: NCI-H1734
# Outline: as §1
# NCI-H1755 = test system: NCI-H1755
# Outline: as §1
# NCI-H1975 = test system: NCI-H1975
# Outline: as §1
# NCI-H2023 = test system: NCI-H2023
# Outline: as §1
# NCI-H2085 = test system: NCI-H2085
# Outline: as §1
# NCI-H2342 = test system: NCI-H2342
# Outline: as §1
# NCI-H358 = test system: NCI-H358
# Outline: as §1
# NCI-H441 = test system: NCI-H441
# Outline: as §1
# NCI-H460 = test system: NCI-H460
# Outline: as §1
# NCI-H838 = test system: NCI-H838
# Outline: as §1
smiles,measurement,setting,value
Oc1nc(-c2ccc(C(F)(F)F)cc2)nc2c1CSCC2 [XAV939] + Cc1cc(Nc2cc(N3CCN(C)CC3)nc(Sc3ccc(NC(=O)C4CC4)cc3)n2)n[nH]1 [Tozasertib] (partner 0.1 µM),relative viability,BEN; first compound 0.08 µM,0.579
same,relative viability,BEN; first compound 0.253 µM,0.451
same,relative viability,BEN; first compound 0.8 µM,0.542
same,relative viability,BEN; first compound 2.53 µM,0.444
same,relative viability,CAL-12T; first compound 0.08 µM,0.386
same,relative viability,CAL-12T; first compound 0.253 µM,0.29
same,relative viability,CAL-12T; first compound 0.8 µM,0.222
same,relative viability,CAL-12T; first compound 2.53 µM,0.196
same,relative viability,EKVX; first compound 0.08 µM,0.47
same,relative viability,EKVX; first compound 0.253 µM,0.36
same,relative viability,EKVX; first compound 0.8 µM,0.372
same,relative viability,EKVX; first compound 2.53 µM,0.29
same,relative viability,HCC-366; first compound 0.08 µM,0.163
same,relative viability,HCC-366; first compound 0.253 µM,0.0951
same,relative viability,HCC-366; first compound 0.8 µM,0.116
same,relative viability,HCC-366; first compound 2.53 µM,0.0569
same,relative viability,HCC-44; first compound 0.08 µM,1.46
same,relative viability,HCC-44; first compound 0.253 µM,0.799
same,relative viability,HCC-44; first compound 0.8 µM,0.996
same,relative viability,HCC-44; first compound 2.53 µM,0.789
same,relative viability,LOU-NH91; first compound 0.08 µM,0.655
same,relative viability,LOU-NH91; first compound 0.253 µM,0.663
same,relative viability,LOU-NH91; first compound 0.8 µM,0.637
same,relative viability,LOU-NH91; first compound 2.53 µM,0.695
same,relative viability,LU99A; first compound 0.08 µM,0.268
same,relative viability,LU99A; first compound 0.253 µM,0.261
same,relative viability,LU99A; first compound 0.8 µM,0.237
same,relative viability,LU99A; first compound 2.53 µM,0.284
same,relative viability,NCI-H1355; first compound 0.08 µM,0.715
same,relative viability,NCI-H1355; first compound 0.253 µM,0.473
same,relative viability,NCI-H1355; first compound 0.8 µM,0.548
same,relative viability,NCI-H1355; first compound 2.53 µM,0.411
same,relative viability,NCI-H1395; first compound 0.08 µM,0.716
same,relative viability,NCI-H1395; first compound 0.253 µM,0.651
same,relative viability,NCI-H1395; first compound 0.8 µM,0.797
same,relative viability,NCI-H1395; first compound 2.53 µM,0.632
same,relative viability,NCI-H1437; first compound 0.08 µM,0.419
same,relative viability,NCI-H1437; first compound 0.253 µM,0.335
same,relative viability,NCI-H1437; first compound 0.8 µM,0.443
same,relative viability,NCI-H1437; first compound 2.53 µM,0.414
same,relative viability,NCI-H1650; first compound 0.08 µM,0.471
same,relative viability,NCI-H1650; first compound 0.253 µM,0.36
same,relative viability,NCI-H1650; first compound 0.8 µM,0.406
same,relative viability,NCI-H1650; first compound 2.53 µM,0.332
same,relative viability,NCI-H1651; first compound 0.08 µM,0.726
same,relative viability,NCI-H1651; first compound 0.253 µM,0.58
same,relative viability,NCI-H1651; first compound 0.8 µM,0.763
same,relative viability,NCI-H1651; first compound 2.53 µM,0.639
same,relative viability,NCI-H1734; first compound 0.08 µM,0.243
same,relative viability,NCI-H1734; first compound 0.253 µM,0.206
same,relative viability,NCI-H1734; first compound 0.8 µM,0.261
same,relative viability,NCI-H1734; first compound 2.53 µM,0.293
same,relative viability,NCI-H1755; first compound 0.08 µM,0.575
same,relative viability,NCI-H1755; first compound 0.253 µM,0.518
same,relative viability,NCI-H1755; first compound 0.8 µM,0.587
same,relative viability,NCI-H1755; first compound 2.53 µM,0.481
same,relative viability,NCI-H1975; first compound 0.08 µM,0.729
same,relative viability,NCI-H1975; first compound 0.253 µM,0.736
same,relative viability,NCI-H1975; first compound 0.8 µM,0.683
same,relative viability,NCI-H1975; first compound 2.53 µM,0.514
same,relative viability,NCI-H2023; first compound 0.08 µM,0.391
same,relative viability,NCI-H2023; first compound 0.253 µM,0.334
same,relative viability,NCI-H2023; first compound 0.8 µM,0.278
same,relative viability,NCI-H2023; first compound 2.53 µM,0.226
same,relative viability,NCI-H2085; first compound 0.08 µM,0.774
same,relative viability,NCI-H2085; first compound 0.253 µM,0.856
same,relative viability,NCI-H2085; first compound 0.8 µM,0.651
same,relative viability,NCI-H2085; first compound 2.53 µM,0.688
same,relative viability,NCI-H2342; first compound 0.08 µM,0.592
same,relative viability,NCI-H2342; first compound 0.253 µM,0.511
same,relative viability,NCI-H2342; first compound 0.8 µM,0.419
same,relative viability,NCI-H2342; first compound 2.53 µM,0.301
same,relative viability,NCI-H358; first compound 0.08 µM,0.112
same,relative viability,NCI-H358; first compound 0.253 µM,0.0945
same,relative viability,NCI-H358; first compound 0.8 µM,0.0995
same,relative viability,NCI-H358; first compound 2.53 µM,0.0987
same,relative viability,NCI-H441; first compound 0.08 µM,0.818
same,relative viability,NCI-H441; first compound 0.253 µM,0.573
same,relative viability,NCI-H441; first compound 0.8 µM,0.71
same,relative viability,NCI-H441; first compound 2.53 µM,0.601
same,relative viability,NCI-H460; first compound 0.08 µM,0.587
same,relative viability,NCI-H460; first compound 0.253 µM,0.392
same,relative viability,NCI-H460; first compound 0.8 µM,0.45
same,relative viability,NCI-H460; first compound 2.53 µM,0.289
same,relative viability,NCI-H838; first compound 0.08 µM,0.274
same,relative viability,NCI-H838; first compound 0.253 µM,0.259
same,relative viability,NCI-H838; first compound 0.8 µM,0.276
same,relative viability,NCI-H838; first compound 2.53 µM,0.209
